Test results: article PMC8761912, “Cryptosporidium parvum Pyruvate Kinase Inhibitors With in vivo Anti-cryptosporidial Efficacy” (Frontiers in Microbiology, 2022)
Like-named read-outs stand apart in the source and are kept apart here.

Experiments:
C. parvum = test: In vitro anti-Cryptosporidium activity in infected HCT-8 cells (immunofluorescence assay); assay type: cell-based, Cryptosporidium parvum; details: for effect on in vitro proliferation and viability of C. parvum: 25 μM, added immediately after infection, 48 h of culture, vs untreated parasites; for EC50: Cryptosporidium parvum; for Selectivity index (CC50/EC50): HCT-8 CC50 / anti-C. parvum EC50; for effect on proliferation of intracellular C. parvum in HCT-8 cells: varying concentrations, 0 h or 2 h PI, analysed 48 h PI, vs infected cultures without compound
Description: Once confluent, the cells were infected with 10^5 freshly excysted C. parvum sporozoites per well, immediately followed by the addition of anti-CpPyK compounds (reconstituted in DMSO) to one set of wells. Control infected cells were treated with DMSO volumes equivalent to those used for the compound-treated cultures. Paromomycin reconstituted in distilled sterile water, served as a positive control at a concentration of 200 μM. […] Briefly, the medium was removed from the culture wells, and the cells were washed two times with PBS before fixation with pre-chilled methanol-acetic acid (9:1) for 5 min at room temperature. Residual fixative was removed by rinsing the wells with PBS. Cells were rehydrated and permeabilized by washing twice with a buffer containing 0.1% Triton X-100, 0.35 M NaCl, and 0.13 M Tris-base, pH 7.6. Normal goat serum (5% in PBS) was used as a blocking agent, and the cell monolayer was stained with a fluorescein-labeled anti-C. parvum polyclonal antibody (Sporo-Glo™; Waterborne, Inc.) overnight at 4°C. The stained cells were washed twice with PBS followed by the addition of 200 μl water to each well. Plates were then imaged with an inverted fluorescence microscope using a 20× objective. The fluorescence generated by intracellular C. parvum parasites was quantified from nine microscopic fields per well of a 96-well plate using the batch process function in ImageJ version v1.50 (NIH, United States) after setting a threshold for the detection of parasites. Control wells with uninfected monolayers were included for background subtraction. Experiments were performed in triplicate and repeated at least three times.
One set of wells with confluent HCT-8 cells received CpPyK inhibitors immediately after C. parvum infection, while the same compounds were added to the other set of wells 2 h post-infection (PI). Control infected cells were treated with varying volumes of DMSO equivalent to the ones used for the compound-treated cultures. Cell monolayers were processed for immunofluorescence analysis after 48 h of incubation as described above. Samples were run in triplicate and three independent assays were performed. EC50 values were calculated using non-linear regression analysis of the mean dose-response curve data in GraphPad PRISM® v8.

[1] = ref https://pubchem.ncbi.nlm.nih.gov, cited from earlier work; for Polar surface area: topological
[2] = Physicochemical properties adapted from PubChem; details: based on Supplementary Table 2 properties
From the text: Supplementary Table S2. Physicochemical properties of identified CpPyK inhibitors (Adapted from: https://pubchem.ncbi.nlm.nih.gov).
NSC Molecular Molecular Number of Number of Number of Polar number IUPAC name formula weight cLog(p) Hydrogen bond Hydrogen bond rotatable surface donors acceptors bonds area (Å²) […]

[3] = In vitro compound cytotoxicity assay (WST-1); assay type: cell-based; details: human, uninfected HCT-8 cells
Description: Compounds were tested for cytotoxicity in human ileocecal colorectal adenocarcinoma cells [HCT-8 (HRT-18); ATCC® CCL-244™, CVCL_2478] by using the cell proliferation reagent WST-1 (Roche) according to the manufacturer’s protocol. The WST-1 assay is a quantitative colorimetric assay for measurement of metabolically active cells. This assay is based on the reduction of the tetrazolium salt (WST-1) by viable cells. About 5 × 10^4 HCT-8 cells were seeded per well in 96-well plates and grown overnight in 200 μl of RPMI-1640 medium (without phenol red) (Gibco) supplemented with 2.5 g/L of glucose, 1 mM sodium pyruvate, 1.5 g/L of sodium bicarbonate, 10% heat-inactivated FBS (Gibco), and 1 × Antibiotic-Antimycotic (Gibco) at 37°C with 5% CO2 in a humidified incubator. Upon reaching 80–90% confluency, cells were treated with the chemical compounds reconstituted in DMSO for 24 h. The volume of DMSO was kept below 1% of the total culture volume in all the wells to avoid DMSO cytotoxicity. Control wells received equivalent volumes of DMSO used in the reconstituted compounds. After 24 h of culture, 10 μl of the WST-1 reagent was added to each well, and the plates were incubated for 1 h at 37°C with 5% CO2 under dark conditions. The plates were shaken thoroughly and 150 μl of the medium from each well was transferred to a new clear flat-bottom black 96-well plate (Corning). Absorbance was read at a test wavelength of 440 nm and a reference wavelength of 690 nm using a multi-mode microplate reader (Spectra Max iD3; Molecular Devices, United States). The mean percent toxicity (MPT) of each compound was derived by dividing the difference in absorbance (OD) between the compound-treated cells and the DMSO-treated cells by the absorbance from the DMSO-treated cells and multiplying the product by 100:
(2) MPT=[(MeanODDMSO-treated-MeanODCompound-treated)÷MeanODDMSO-treated]×100.
The half maximal cytotoxic concentration (CC50) values were determined by using non-linear regression analysis in GraphPad PRISM® v8. Assays were performed in triplicate and repeated three times.

Solubility = assay type: physicochemical; details: DMSO
[4] = Tolerability in uninfected mice, daily oral gavage; assay type: in vivo; details: 10 mg/kg daily oral administration, 8 days
Description: Eight weeks old male interferon-gamma knockout (IFN-γ KO) mice (B6.129S7-Ifng^TM1Ts/J) were purchased from The Jackson Laboratory, United States, and allowed to quarantine and acclimatize for 1 week before the commencement of experiments. Before the start of the infection assays in mice, the tolerability of each inhibitor was determined by daily oral gavage with varying dosages (0–10 mg/kg mouse bodyweight) in groups of mice (n = 3 mice per group) for 8 days. During this period, mice were monitored daily for any changes in physical and mental activity, feeding, body weight, body temperature, fur condition, and body posture. […] Mice were divided into infected and uninfected groups (n = 3 mice per group) and each individual mouse was housed in a separate cage lined with sterile gauze bedding. Each mouse from the infected group was infected by oral gavage administration of 10^4 C. parvum AUCP-1 isolate oocysts suspended in 50 μl of PBS. Beginning day 3 PI, groups of mice were orally treated with CpPyK inhibitors (at the specified doses), sham (100 μl of 5% DMSO in PBS), or 1,000 mg/kg paromomycin (in sterile water) once daily for a total of 8 days. Fecal pellets were collected daily in individual sterile 15 ml tubes, and submerged in an equivalent volume of PBS containing a cocktail of penicillin (100 units/ml), streptomycin (100 μg/ml), chloramphenicol (34 μg/ml), and amphotericin (0.25 μg/ml), and stored at 4°C until use. Three independent replicate infection assays were performed. Mice were sacrificed at day 11 PI, and 5 cm of the distal small intestine just anterior to the cecum was resected and submerged in 10% neutral buffered formalin and submitted for histopathological processing in the Comparative Biosciences Histology Laboratory at the University of Illinois at Urbana-Champaign. Briefly, intestinal tissues preserved in 10% neutral buffered formalin were washed in 70% ethanol, embedded in paraffin, and sectioned transversely at a thickness of 5 μm. Sections were stained with hematoxylin and eosin. The slides were imaged using a Zeiss microscope fitted with a color camera.

[5] = HCT-8, read-out: Anti-C. parvum EC50, 0 h PI
[6] = HCT-8, read-out: Anti-C. parvum EC50, 2 h PI

## c1ccc(-c2nnc(-c3ccccn3)[nH]2)nc1 [NSC234945, 2-(3-pyridin-2-yl-1H-1,2,4-triazol-5-yl)pyridine]
C. parvum
  effect on in vitro proliferation and viability of C. parvum: significant inhibitory effect
  Selectivity index (CC50/EC50): 5.02
  effect on proliferation of intracellular C. parvum in HCT-8 cells: significant (P < 0.05) concentration-dependent inhibitory effect
C. parvum; [5]
  EC50: 86 µM
C. parvum; [6]
  EC50: 89.6 µM
[1]
  Number of Hydrogen bond acceptors: 4
  Number of Hydrogen bond donors: 1
  Polar surface area: 67.4 Å²
[2]
  conformity to Lipinski's and Veber's rules for drug-likeness: conform
[3]
  CC50 at 24 h: 432 µM
Solubility
  solubility in DMSO: high solubility in DMSO
[4]
  toxicity signs in uninfected mice: did not induce any toxicity signs

## N#C/C(=C\c1cc(O)c(O)c(O)c1)C(N)=O [NSC638080, (E)-2-cyano-3-(3,4,5-trihydroxyphenyl)prop-2-enamide]
C. parvum
  effect on in vitro proliferation and viability of C. parvum: significant inhibitory effect
  Selectivity index (CC50/EC50): 68.96
  effect on proliferation of intracellular C. parvum in HCT-8 cells: significant (P < 0.05) concentration-dependent inhibitory effect
C. parvum; [5]
  EC50: 10.9 µM
C. parvum; [6]
  EC50: 14.7 µM
[1]
  Number of Hydrogen bond acceptors: 5
  Number of Hydrogen bond donors: 4
  Polar surface area: 128 Å²
[2]
  conformity to Lipinski's and Veber's rules for drug-likeness: conform
[3]
  CC50 at 24 h: 750 µM
[4]
  toxicity signs in uninfected mice: did not induce any toxicity signs

## CCOc1ccc(/C=C2\CCc3ccccc3C2=O)cc1 [NSC252172, (2E)-2-[(4-ethoxyphenyl)methylidene]-3,4-dihydronaphthalen-1-one]
C. parvum
  effect on in vitro proliferation and viability of C. parvum: significant inhibitory effect
  Selectivity index (CC50/EC50): 15.10
  effect on proliferation of intracellular C. parvum in HCT-8 cells: significant (P < 0.05) concentration-dependent inhibitory effect
C. parvum; [5]
  EC50: 17.6 µM
C. parvum; [6]
  EC50: 18.7 µM
[1]
  Number of Hydrogen bond acceptors: 2
  Number of Hydrogen bond donors: 0
  Polar surface area: 26.3 Å²
[2]
  conformity to Lipinski's and Veber's rules for drug-likeness: conform
[3]
  CC50 at 24 h: 266 µM
[4]
  toxicity signs in uninfected mice: did not induce any toxicity signs

## Cc1cc2c(c(C#N)c1C)NC=NC2C (stereo not drawn) [NSC303244, 4,6,7-trimethyl-1,4-dihydroquinazoline-8-carbonitrile]
C. parvum
  effect on in vitro proliferation and viability of C. parvum: significant inhibitory effect
  Selectivity index (CC50/EC50): 64.15
  effect on proliferation of intracellular C. parvum in HCT-8 cells: significant (P < 0.05) concentration-dependent inhibitory effect
C. parvum; [5]
  EC50: 10.3 µM
C. parvum; [6]
  EC50: 15.8 µM
[1]
  Number of Hydrogen bond acceptors: 2
  Number of Hydrogen bond donors: 1
  Polar surface area: 48.2 Å²
[2]
  conformity to Lipinski's and Veber's rules for drug-likeness: conform
[3]
  CC50 at 24 h: 660 µM
[4]
  toxicity signs in uninfected mice: did not induce any toxicity signs
